According to patent publication US20220340597A1, “HEXAHYDRO-1H-PYRAZINO[1,2-A]PYRAZINE COMPOUNDS FOR THE TREATMENT OF AUTOIMMUNE DISEASE” (Hoffmann-La Roche Inc., priority 2019, published 2022):

Assays:
human TLR7 = target: T1, human TLR7 (Homo sapiens, UniProt Q9NYK1); assay: HEK293-Blue-hTLR-7 cells assay; type: cell-based; conditions: HEK293-Blue-hTLR7 cells, R848 stimulation, 20 hrs, SEAP reporter; read-out: HEK/hTLR7 IC50
T1 construct: host or cells: HEK293 (HEK-Blue hTLR7)
T1 sequence (Q9NYK1 27-1049): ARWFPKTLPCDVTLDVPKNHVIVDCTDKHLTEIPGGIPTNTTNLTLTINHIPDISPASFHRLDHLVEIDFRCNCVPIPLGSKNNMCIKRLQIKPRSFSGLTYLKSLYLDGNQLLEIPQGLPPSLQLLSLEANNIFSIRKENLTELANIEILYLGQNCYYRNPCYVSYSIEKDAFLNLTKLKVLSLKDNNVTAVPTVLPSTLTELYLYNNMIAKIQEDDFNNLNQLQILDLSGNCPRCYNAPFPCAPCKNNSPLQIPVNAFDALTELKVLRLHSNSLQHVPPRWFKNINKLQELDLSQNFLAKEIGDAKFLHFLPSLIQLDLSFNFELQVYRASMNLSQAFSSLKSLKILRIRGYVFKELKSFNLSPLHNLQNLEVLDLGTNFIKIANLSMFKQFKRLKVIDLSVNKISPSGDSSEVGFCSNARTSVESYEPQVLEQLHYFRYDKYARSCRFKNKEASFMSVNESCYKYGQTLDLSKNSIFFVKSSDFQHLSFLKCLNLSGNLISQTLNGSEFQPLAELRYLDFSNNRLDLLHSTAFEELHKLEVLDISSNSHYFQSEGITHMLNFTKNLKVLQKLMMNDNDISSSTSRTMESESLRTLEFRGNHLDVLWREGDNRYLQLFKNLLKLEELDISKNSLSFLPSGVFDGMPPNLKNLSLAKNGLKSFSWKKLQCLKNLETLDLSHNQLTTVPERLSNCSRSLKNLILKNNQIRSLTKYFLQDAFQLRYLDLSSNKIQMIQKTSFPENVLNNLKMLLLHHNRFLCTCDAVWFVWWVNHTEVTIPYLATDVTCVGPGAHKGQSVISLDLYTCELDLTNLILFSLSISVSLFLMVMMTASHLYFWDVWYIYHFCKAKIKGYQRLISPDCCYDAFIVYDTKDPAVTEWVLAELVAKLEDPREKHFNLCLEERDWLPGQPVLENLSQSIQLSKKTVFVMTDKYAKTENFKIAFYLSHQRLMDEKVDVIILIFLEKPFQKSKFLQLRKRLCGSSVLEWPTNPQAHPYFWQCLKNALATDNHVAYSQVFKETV
Procedure: The following tests were carried out in order to determine the activity of the compounds of formula (I) and (Ia) in HEK293-Blue-hTLR-7/8/9 cells assay.
HEK293-Blue-hTLR-7 cells assay:
A stable HEK293-Blue-hTLR-7 cell line was purchased from InvivoGen (Cat. #: hkb-htlr7, San Diego, Calif., USA). These cells were originally designed for studying the stimulation of human TLR7 by monitoring the activation of NF-κB. A SEAP (secreted embryonic alkaline phosphatase) reporter gene was placed under the control of the […] minimal promoter fused to five NF-κB and AP-1-binding sites. The SEAP was induced by activating NF-κB and AP-1 via stimulating HEK-Blue hTLR7 cells with TLR7 ligands. Therefore, the reporter expression was declined by TLR7 antagonist under the stimulation of a ligand, such as R848 (Resiquimod), for incubation of 20 hrs. The cell culture supernatant SEAP reporter activity was determined using QUANTI-Blue™ kit (Cat. #: rep-qb1, Invivogen, San Diego, Calif., USA) at a wavelength of 640 nm, a detection medium that turns purple or blue in the presence of alkaline phosphatase.
Then 20 μL of the supernatant from each well was incubated with […] Quanti-blue substrate solution at 37° C. for 2 hrs and the absorbance was read at 620-655 nm using a spectrophotometer. The signaling pathway that TLR7 activation leads to downstream NF-κB activation has been widely accepted, and therefore similar reporter assay was modified for evaluating TLR7 antagonist.

human TLR8 = target: T2, human TLR8 (Homo sapiens, UniProt Q9NR97); assay: HEK293-Blue-hTLR-8 cells assay
T2 sequence (Q9NR97 27-1041): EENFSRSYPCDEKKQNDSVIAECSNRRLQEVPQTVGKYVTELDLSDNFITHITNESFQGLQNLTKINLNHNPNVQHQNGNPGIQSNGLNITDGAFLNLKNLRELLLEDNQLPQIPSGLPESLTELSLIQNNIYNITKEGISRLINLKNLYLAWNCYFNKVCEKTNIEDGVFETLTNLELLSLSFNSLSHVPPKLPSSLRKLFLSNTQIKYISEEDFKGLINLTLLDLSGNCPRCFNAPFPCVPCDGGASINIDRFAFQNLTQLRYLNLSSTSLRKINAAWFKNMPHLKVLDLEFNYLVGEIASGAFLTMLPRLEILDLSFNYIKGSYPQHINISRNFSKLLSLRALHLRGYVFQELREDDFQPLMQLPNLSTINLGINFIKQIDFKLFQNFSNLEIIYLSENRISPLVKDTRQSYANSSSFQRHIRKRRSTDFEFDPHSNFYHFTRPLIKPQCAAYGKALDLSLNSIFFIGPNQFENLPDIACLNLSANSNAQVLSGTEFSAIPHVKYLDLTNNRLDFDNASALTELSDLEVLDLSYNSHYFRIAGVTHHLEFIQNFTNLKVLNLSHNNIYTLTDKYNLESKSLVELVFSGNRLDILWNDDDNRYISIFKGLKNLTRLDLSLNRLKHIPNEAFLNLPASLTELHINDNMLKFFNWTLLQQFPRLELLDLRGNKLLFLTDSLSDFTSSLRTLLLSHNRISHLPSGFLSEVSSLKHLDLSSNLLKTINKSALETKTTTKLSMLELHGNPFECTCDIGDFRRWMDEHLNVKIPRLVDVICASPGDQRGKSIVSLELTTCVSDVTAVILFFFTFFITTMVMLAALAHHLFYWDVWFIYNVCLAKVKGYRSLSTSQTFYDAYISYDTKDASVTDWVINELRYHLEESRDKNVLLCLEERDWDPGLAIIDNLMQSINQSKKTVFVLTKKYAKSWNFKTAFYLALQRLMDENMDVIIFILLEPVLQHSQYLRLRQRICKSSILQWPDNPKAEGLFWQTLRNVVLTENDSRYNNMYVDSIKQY

IC50 (human TLR7) [nM] | IC50 (human TLR8) [nM] | SMILES
49 | 28 | C[C@@H]1CN(c2ccc(C#N)c3ncccc23)C[C@@H]2CN(Cc3ccc(N4CCCNCC4)nc3)CCN21 [Example 15, 5-[(4R,9aS)-8-[[6-(1,4-diazepan-1-yl)-3-pyridyl]methyl]-4-methyl-3,4,6,7,9,9a-hexahydro-JH-pyrazino[1,2-a]pyrazin-2-yl]quinoline-8-carbonitrile]
6 | 9 | C[C@@H]1CN(c2ccc(C#N)c3ncccc23)C[C@@H]2CN(c3nccc4c3CCNC4)CCN21 [Example 16, 5-[(4R,9aR)-4-methyl-8-(5,6,7,8-tetrahydro-2,6-naphthyridin-1-yl)-3,4,6,7,9,9a-hexahydro-1H-pyrazino[1,2-a]pyrazin-2-yl]quinoline-8-carbonitrile]
10 | 31 | C[C@@H]1CN(c2ccc(C#N)c3ncccc23)C[C@@H]2CN(CCc3ccc(N4C[C@@H](N)[C@@H](F)C4)cn3)CCN21 [Example 19, 5-[(4R,9aS)-8-[2-[5-[(3R,4S)-3-amino-4-fluoro-pyrrolidin-1-yl]-2-pyridyl]ethyl]-4-methyl-3,4,6,7,9,9a-hexahydro-1H-pyrazino[1,2-a]pyrazin-2-yl]quinoline-8-carbonitrile]
14 | 51 | C[C@@H]1CN(c2ccc(C#N)c3ncccc23)C[C@@H]2CN(CCc3ccc(N4CCN[C@@H](C)C4)cn3)CCN21 [Example 20, 5-[(4R,9aS)-4-methyl-8-[2-[5-[(3S)-3-methylpiperazin-1-yl]-2-pyridyl]ethyl]-3,4,6,7,9,9a-hexahydro-1H-pyrazino[1,2-a]pyrazin-2-yl]quinoline-8-carbonitrile]
19 | 53 | C[C@@H]1CN(c2ccc(C#N)c3ncccc23)C[C@@H]2CN(CCc3cccc(N4CCN[C@@H](C)C4)n3)CCN21 [Example 21, 5-[(4R,9aS)-4-methyl-8-[2-[6-[(3S)-3-methylpiperazin-1-yl]-2-pyridyl]ethyl]-3,4,6,7,9,9a-hexahydro-1H-pyrazino[1,2-a]pyrazin-2-yl]quinoline-8-carbonitrile]

Second part, the compound before the results:

SMILES | IC50 (human TLR7) [nM] | IC50 (human TLR8) [nM]
C[C@@H]1CN(c2ccc(C#N)c3ncccc23)C[C@@H]2CN(Cc3ccc4c(c3)CNCC4)CCN21 [Example 5, 5-[(4R,9aS)-4-methyl-8-(1,2,3,4-tetrahydroisoquinolin-7-ylmethyl)-3,4,6,7,9,9a-hexahydro-1H-pyrazino[1,2-a]pyrazin-2-yl]quinoline-8-carbonitrile] | 17 | 12
C[C@@H]1CN(c2ccc(C#N)c3ncccc23)C[C@@H]2CN(Cc3cnc4c(c3)CNCC4)CCN21 [Example 6, 5-[(4R,9aS)-4-methyl-8-(5,6,7,8-tetrahydro-1,6-naphthyridin-3-ylmethyl)-3,4,6,7,9,9a-hexahydro-1H-pyrazino[1,2-a]pyrazin-2-yl]quinoline-8-carbonitrile] | 14 | 14
C[C@@H]1CN(c2ccc(C#N)c3ncccc23)C[C@@H]2CN(CCc3ccc(N4CCNCC4)cc3)CCN21 [Example 7, 5-[(4R,9aS)-4-methyl-8-[2-(4-piperazin-1-ylphenyl)ethyl]-3,4,6,7,9,9a-hexahydro-1H-pyrazino[1,2-a]pyrazin-2-yl]quinoline-8-carbonitrile] | 5 | 30
C[C@@H]1CN(c2ccc(C#N)c3ncccc23)C[C@@H]2CN(Cc3ccc(N4CCNCC4)nc3)CCN21 [Example 8, 5-[(4R,9aS)-4-methyl-8-[(6-piperazin-1-yl-3-pyridyl)methyl]-3,4,6,7,9,9a-hexahydro-1H-pyrazino[1,2-a]pyrazin-2-yl]quinoline-8-carbonitrile] | 22 | 52
C[C@@H]1CN(c2ccc(C#N)c3ncccc23)C[C@@H]2CN(c3cccc4c3CNC4)CCN21 [Example 9, 5-[(4R,9aS)-8-isoindolin-4-yl-4-methyl-3,4,6,7,9,9a-hexahydro-1H-pyrazino[1,2-a]pyrazin-2-yl]quinoline-8-carbonitrile] | 3 | 1
C[C@@H]1CN(c2ccc(C#N)c3ncccc23)C[C@@H]2CN(Cc3ccc4c(c3)CCNC4)CCN21 [Example 10, 5-[(4R,9aS)-4-methyl-8-(1,2,3,4-tetrahydroisoquinolin-6-ylmethyl)-3,4,6,7,9,9a-hexahydro-1H-pyrazino[1,2-a]pyrazin-2-yl]quinoline-8-carbonitrile] | 26 | 12
C[C@@H]1CN(c2ccc(C#N)c3ncccc23)C[C@@H]2CN(CCc3ccc(N4CCNCC4)nc3)CCN21 [Example 11, 5-[(4R,9aS)-4-methyl-8-[2-(6-piperazin-1-yl-3-pyridyl)ethyl]-3,4,6,7,9,9a-hexahydro-1H-pyrazino[1,2-a]pyrazin-2-yl]quinoline-8-carbonitrile] | 7 | 21
CO[C@@H]1CN(c2ccc(CCN3CCN4[C@@H](C3)CN(c3ccc(C#N)c5ncccc35)C[C@H]4C)cn2)C[C@H]1N [Example 12, 5-[(4R,9aS)-8-[2-[6-[(3R,4R)-3-amino-4-methoxy-pyrrolidin-1-yl]-3-pyridyl]ethyl]-4-methyl-3,4,6,7,9,9a-hexahydro-1H-pyrazino[1,2-a]pyrazin-2-yl]quinoline-8-carbonitrile] | 12 | 14
CO[C@@H]1CN(c2ccc(CCN3CCN4[C@@H](C3)CN(c3ccc(C#N)c5ncccc35)C[C@H]4C)nc2)C[C@H]1N [Example 13, 5-[(4R,9aS)-8-[2-[5-[(3R,4R)-3-amino-4-methoxy-pyrrolidin-1-yl]-2-pyridyl]ethyl]-4-methyl-3,4,6,7,9,9a-hexahydro-1H-pyrazino[1,2-a]pyrazin-2-yl]quinoline-8-carbonitrile] | 26 | 9
